# Key:
# cells = settings: Homo sapiens, Jurkat
# [1] = target: Protein kinase C beta type (Homo sapiens, UniProt P05771); assay: Inhibition of PKCbeta1 by SPA
# [2] = target: Protein kinase C theta type (Homo sapiens, UniProt Q04759); assay: Inhibition of PKCtheta by SPA
# [3] = target: Protein kinase C alpha type (Homo sapiens, UniProt P17252); assay: Inhibition of PKCalpha by SPA
# [4] = target: T1, Protein kinase C epsilon type (Homo sapiens, UniProt Q02156); assay: Inhibition of PKCepsilon by SPA
# T1 sequence (Q02156 whole entry): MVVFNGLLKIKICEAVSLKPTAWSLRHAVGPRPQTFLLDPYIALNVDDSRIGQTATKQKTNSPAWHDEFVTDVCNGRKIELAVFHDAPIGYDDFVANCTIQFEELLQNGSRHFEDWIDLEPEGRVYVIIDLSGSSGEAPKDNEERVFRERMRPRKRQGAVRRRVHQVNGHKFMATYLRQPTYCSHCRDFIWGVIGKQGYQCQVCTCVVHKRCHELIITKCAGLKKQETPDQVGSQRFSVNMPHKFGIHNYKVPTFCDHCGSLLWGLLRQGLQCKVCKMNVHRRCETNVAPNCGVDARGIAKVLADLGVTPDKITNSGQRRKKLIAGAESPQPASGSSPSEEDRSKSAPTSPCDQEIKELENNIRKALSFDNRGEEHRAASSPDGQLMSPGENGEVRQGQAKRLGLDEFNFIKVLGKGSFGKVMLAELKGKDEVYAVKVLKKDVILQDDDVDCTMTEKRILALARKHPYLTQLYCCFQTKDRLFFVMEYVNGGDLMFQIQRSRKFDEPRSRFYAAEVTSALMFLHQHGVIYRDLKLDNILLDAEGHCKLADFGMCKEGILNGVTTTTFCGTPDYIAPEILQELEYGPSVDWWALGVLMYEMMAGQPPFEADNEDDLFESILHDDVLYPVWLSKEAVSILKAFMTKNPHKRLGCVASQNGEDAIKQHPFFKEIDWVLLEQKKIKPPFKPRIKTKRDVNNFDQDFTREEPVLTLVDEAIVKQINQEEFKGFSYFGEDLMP
# [5] = target: Protein kinase C eta type (Homo sapiens, UniProt P24723); assay: Inhibition of PKCeta by SPA
# [6] = Dissociation constant, pKa of the compound; format: physicochemical
# [7] = target: Protein kinase C delta type (Homo sapiens, UniProt Q05655); assay: Inhibition of PKCdelta by SPA
# Sequence of Protein kinase C delta type (Q05655 whole entry): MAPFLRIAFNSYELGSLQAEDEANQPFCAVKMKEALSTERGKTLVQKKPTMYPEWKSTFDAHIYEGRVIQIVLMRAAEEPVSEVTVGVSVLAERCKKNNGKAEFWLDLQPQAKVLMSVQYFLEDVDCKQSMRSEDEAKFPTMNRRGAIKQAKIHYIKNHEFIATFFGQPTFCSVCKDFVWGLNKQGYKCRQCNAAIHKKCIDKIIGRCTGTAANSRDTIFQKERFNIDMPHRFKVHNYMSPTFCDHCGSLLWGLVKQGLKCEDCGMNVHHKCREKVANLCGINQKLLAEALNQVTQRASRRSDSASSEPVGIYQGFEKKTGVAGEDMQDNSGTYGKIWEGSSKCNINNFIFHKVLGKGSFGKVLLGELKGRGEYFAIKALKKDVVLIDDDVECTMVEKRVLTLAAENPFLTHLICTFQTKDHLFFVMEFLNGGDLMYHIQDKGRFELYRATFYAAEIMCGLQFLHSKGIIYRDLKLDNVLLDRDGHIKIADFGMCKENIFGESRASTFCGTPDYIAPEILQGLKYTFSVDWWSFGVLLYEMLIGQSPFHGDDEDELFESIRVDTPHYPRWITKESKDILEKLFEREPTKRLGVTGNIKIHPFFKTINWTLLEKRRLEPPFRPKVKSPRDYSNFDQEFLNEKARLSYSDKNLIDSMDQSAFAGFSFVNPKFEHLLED
# Sequence of Protein kinase C theta type (Q04759 whole entry): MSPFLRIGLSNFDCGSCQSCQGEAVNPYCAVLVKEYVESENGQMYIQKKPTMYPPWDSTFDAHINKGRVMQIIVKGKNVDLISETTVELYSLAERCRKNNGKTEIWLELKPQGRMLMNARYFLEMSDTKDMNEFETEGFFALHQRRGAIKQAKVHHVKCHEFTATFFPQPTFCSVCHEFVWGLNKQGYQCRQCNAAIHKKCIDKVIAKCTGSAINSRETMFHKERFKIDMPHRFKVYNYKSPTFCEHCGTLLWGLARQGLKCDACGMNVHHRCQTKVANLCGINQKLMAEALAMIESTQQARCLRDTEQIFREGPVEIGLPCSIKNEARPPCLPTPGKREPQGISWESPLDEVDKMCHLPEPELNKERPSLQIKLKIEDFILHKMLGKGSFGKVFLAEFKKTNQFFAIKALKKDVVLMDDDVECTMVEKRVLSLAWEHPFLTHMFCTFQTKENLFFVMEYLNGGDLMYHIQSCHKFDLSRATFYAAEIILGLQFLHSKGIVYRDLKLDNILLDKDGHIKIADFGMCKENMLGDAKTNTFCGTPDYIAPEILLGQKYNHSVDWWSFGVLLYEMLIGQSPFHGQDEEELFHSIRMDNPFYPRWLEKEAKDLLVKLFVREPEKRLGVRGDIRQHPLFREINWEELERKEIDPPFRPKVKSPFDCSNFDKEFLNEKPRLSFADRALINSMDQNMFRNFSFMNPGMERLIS
# Sequence of Protein kinase C eta type (P24723 whole entry): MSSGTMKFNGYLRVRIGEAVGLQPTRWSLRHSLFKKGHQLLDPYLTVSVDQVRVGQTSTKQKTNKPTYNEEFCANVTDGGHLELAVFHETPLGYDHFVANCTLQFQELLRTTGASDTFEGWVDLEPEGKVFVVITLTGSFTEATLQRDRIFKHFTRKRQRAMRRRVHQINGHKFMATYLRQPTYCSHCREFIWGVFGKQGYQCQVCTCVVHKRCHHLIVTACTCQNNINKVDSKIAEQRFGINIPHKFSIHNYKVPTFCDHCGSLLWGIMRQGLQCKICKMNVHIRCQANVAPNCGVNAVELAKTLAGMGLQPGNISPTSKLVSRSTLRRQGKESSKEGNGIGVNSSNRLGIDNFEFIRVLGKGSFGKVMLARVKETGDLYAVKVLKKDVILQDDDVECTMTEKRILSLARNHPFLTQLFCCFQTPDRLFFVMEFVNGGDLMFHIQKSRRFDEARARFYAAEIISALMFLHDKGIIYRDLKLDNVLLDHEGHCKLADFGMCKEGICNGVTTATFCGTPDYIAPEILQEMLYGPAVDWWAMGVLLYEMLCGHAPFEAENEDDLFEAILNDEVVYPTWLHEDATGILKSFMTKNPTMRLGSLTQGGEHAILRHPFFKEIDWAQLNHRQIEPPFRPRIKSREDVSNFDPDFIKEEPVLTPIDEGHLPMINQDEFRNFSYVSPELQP
# Sequence of Protein kinase C beta type (P05771 whole entry): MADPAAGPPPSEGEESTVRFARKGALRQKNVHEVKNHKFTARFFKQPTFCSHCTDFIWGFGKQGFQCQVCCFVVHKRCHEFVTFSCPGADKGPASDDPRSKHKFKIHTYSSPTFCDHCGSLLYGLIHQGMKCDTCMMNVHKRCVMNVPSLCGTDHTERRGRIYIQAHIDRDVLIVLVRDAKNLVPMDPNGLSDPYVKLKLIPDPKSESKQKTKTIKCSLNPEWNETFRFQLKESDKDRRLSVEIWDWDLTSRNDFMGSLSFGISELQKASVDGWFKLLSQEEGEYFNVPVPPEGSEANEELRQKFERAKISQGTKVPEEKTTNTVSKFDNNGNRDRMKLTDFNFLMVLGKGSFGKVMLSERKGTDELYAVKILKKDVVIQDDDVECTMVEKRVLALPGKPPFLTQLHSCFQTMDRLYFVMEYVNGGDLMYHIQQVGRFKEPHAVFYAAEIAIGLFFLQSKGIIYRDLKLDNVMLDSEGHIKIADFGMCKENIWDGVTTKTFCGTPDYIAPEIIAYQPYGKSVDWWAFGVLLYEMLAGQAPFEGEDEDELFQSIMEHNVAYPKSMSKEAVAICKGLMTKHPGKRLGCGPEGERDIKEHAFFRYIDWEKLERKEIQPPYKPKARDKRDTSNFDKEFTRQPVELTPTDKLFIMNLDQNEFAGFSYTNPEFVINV
structure (smiles),measurement,setting,value
CN1CCN(c2cccc(C3=C(c4c[nH]c5ccccc45)C(=O)NC3=O)c2)CC1,IC50,cells,277 nM
same,IC50,[1],36 nM
same,IC50,[2],76 nM
same,IC50,[3],7.1 nM
same,IC50,[4],59 nM
same,IC50,[5],36 nM
same,pKa,[6],7.5
same,IC50,[7],97 nM

# From ChEMBL document CHEMBL1156112, “Discovery of 3-(1H-indol-3-yl)-4-[2-(4-methylpiperazin-1-yl)quinazolin-4-yl]pyrrole-2,5-dione (AEB071), a potent and selective inhibitor of protein kinase C isotypes” (J Med Chem, 2009)
